The text below walks through data of a melting point compilation (Tetko et al.).

Broadly, the melting point is the temperature, or range, at which the solid turns liquid. The compound `Cc1ccc(OCc2nc(CC(=O)O)cs2)cc1` returned a melting point of 145 to 147 °C.
For the compound `Cc1ccc(-c2nnc(-c3ccc(C(=O)O)cc3)o2)cc1`, the melting point is 250 to 252 °C.
`CC1CCCCC1NC(=O)NC(=O)CCl` (configuration not stated): the melting point was in the range of 126 to 128 °C.
As for `Cc1nc2cc(NC(=O)CCC(=O)O)ccc2o1`, the figure is 184 to 186 °C; as for `CCOC(=O)c1csc(NC2CC2)n1`, 89 to 91 °C; as for `CNCC(O)COc1ccccc1C(F)(F)F` (configuration not stated), 124 to 127 °C.
As for `CN1CC(=O)Nc2cc(C(=O)O)ccc21`, the figure is 322 to 324 °C.
The compound `COc1cc(CC#N)ccc1SC(F)F` had a melting point of 41 to 43 °C.
`Cc1ccccc1-n1c(C)cc(C(=O)CCl)c1C`: the melting point was in the range of 65 to 67 °C.
As for `COC(=O)C1CCN(c2nc3ccccc3s2)CC1`, the figure is 91 to 93 °C.
`CC(C)(C)CC(=O)Nc1ccc(Cl)c(C(=O)O)c1`: the melting point fell in the range of 214 to 216 °C.
Compound `NC(=O)CSc1nnc(S)s1` displayed a melting point of 192 to 194 °C.
As for `O=C(c1ccc(Br)cc1)c1ccccc1F`, the figure is 35 to 37 °C; as for `Cc1nc(-c2ccccn2)[nH]c(=O)c1CC(=O)O`, 209 to 211 °C; as for `CSc1nc(C)c(CC(=O)O)s1`, 146 to 148 °C.
`CC(C)c1noc2ncc(C(=O)O)cc12` yielded a melting point of 159 to 161 °C.
As for `NC(=O)NCc1ccccc1Cl`, the figure is 149 to 151 °C.
In turn, `Nc1nnc(-c2cc(F)cc(Br)c2)s1` displayed a melting point of 192 to 194 °C.
As for `O=S(=O)(Cl)c1ccc(S(=O)(=O)NC2CC2)cc1`, the figure is 126 to 128 °C; as for `O=C(O)C1CCCN1Cc1ccc(F)cc1` (configuration not stated), 242 to 244 °C; as for `NC(=S)Nc1cccc(Oc2ccccc2)c1`, 119 to 121 °C.
`CS(=O)(=O)c1ccc(OCCC(=O)O)cc1`: the melting point lay within 108 to 110 °C.
In turn, `O=c1[nH]c(CO)nc2scc(-c3ccccc3)c12` had a melting point of 259 to 261 °C.
With `COc1ccc2[nH]cc(C(=O)CC#N)c2c1`, the melting point was in the range of 289 to 291 °C.
As for `Nn1cnc2sccc2c1=O`, the figure is 214 to 216 °C.
As for `CCOc1c(F)cccc1C(=O)O`, the figure is 43 to 45 °C; as for `Nc1cc(F)cc(N2CCOCC2)c1`, 91 to 93 °C.
`Cn1cc(Br)nn1` yielded a melting point of 99 to 101 °C.
As for `CCOC(=O)c1ncon1`, the figure is 31 to 33 °C; as for `O=C1CCCc2c(Br)cccc21`, 50 to 52 °C.
Turning to `COc1ccc([N+](=O)[O-])cc1CN=[N+]=[N-]`, the melting point fell in the range of 33 to 35 °C.
In turn, `CC(CC(=O)O)NC1=NS(=O)(=O)c2ccccc21` (configuration not stated) had a melting point of 245 to 247 °C.
With `Cc1cc(C(=O)CCl)c(C)n1-c1ccon1`, the melting point was in the range of 87 to 89 °C.
As for `CCC(C)NC(=O)C1CC(C)Nc2ccccc21` (configuration not stated), the figure is 121 to 123 °C; as for `CC(=O)Nc1ccc2c(CCl)cc(=O)oc2c1`, 190 to 195 °C.
As for `O=C(O)c1cc2ccccc2cc1NC(=O)C1CC1`, the figure is 235 to 237 °C; as for `O=C(O)CCc1csc2ccccc12`, 140 to 142 °C.
As for `Cc1ccc2ncc(C(=O)O)c(O)c2c1`, the figure is 269 to 271 °C.
As for `CON(C)S(=O)(=O)c1cccc(C(=O)O)c1`, the melting point is 134 to 138 °C.
In turn, `NC(=O)c1c[nH]c(C2CC2)n1` gave a melting point of 216 to 218 °C.
`Cc1ccc(CCC(=O)O)o1`: the melting point was in the range of 58 to 60 °C.
As for `Nc1ccc(F)c(S(=O)(=O)Nc2ccc(Br)cc2)c1`, the figure is 161 to 163 °C; as for `CC(C)CCNc1c(N)n(Cc2ccccc2)c(=O)[nH]c1=O`, 203 to 205 °C; as for `O=S(=O)(O)C1CCCNC1` (configuration not stated), 304 to 306 °C.
As for `O=C(Nc1ccc(C(=O)O)c(O)c1)c1cc(Cl)cc(Cl)c1`, the figure is 268 to 270 °C; as for `CN(C)S(=O)(=O)c1cccc(C(=O)NCC(=O)O)c1`, 172 to 176 °C.
As for `Cn1c(C(=O)O)cc2cc(C(F)(F)F)ccc21`, the figure is 199 to 201 °C.
